Legend:
[1] = molecular target: T1, Prostaglandin F (FP) Receptor (Homo sapiens, UniProt P43088); assay: Ca2+ assay (FLIPR) for the GPCR prostaglandin F (FP) receptor, agonist and antagonist mode; type: cell-based
T1 construct: host or cells: Ca2+ optimized hematopoietic cell lines (rat)
Method: Biological and Pharmacological Methods 1. Ca^2+ Assays for the GPCRs Motilin Receptor, Prostaglandin F (FP) Receptor, 5-hydroxytryptamine 2B (5-HT2B) Receptor, and Purinoreceptor P2Y1
Assays were performed using on a FLIPR^TETRA fluorometric imaging plate reader (Molecular Devices) with ScreenWorks Version 2 (Molecular Devices) as device operating and data analysis software.
Dose dependent agonist and antagonist activities were determined. Percentage activation and percentage inhibition values were determined.
Percentage activation was determined upon initial addition of the sample compounds followed by 10 minutes incubation at 25° C. Following compound incubation, reference agonists were added at EC80 to determine percentage inhibition.
Reference agonists were purchased from reputable commercial vendors and prepared according to each ligand's specifications. All handling of ligands were done to ensure proper control throughout the experiments.
Example compounds were weighed on a Microbalance (Mettler MX5) and dissolved in 100% DMSO to a final concentration of 2.5 mM and subsequently diluted into the assay buffer.
The Assay buffer was a supplemented HBSS (Hank's Balanced Salt Solution). HBSS was supplemented with 20 mM HEPES (4-(2-hydroxyethyl)-piperazin-1-ethansulfonic acid) and 2.5 mM Probenecid (Sigma P8761).
GPCR assays were performed using Ca^2+ optimized hematopoietic cell lines (rat) with cultures never exceeding 90% confluency. Cells were harvested and seeded (from cultures at less than 90% confluency) at 50000 cells/well for a 96-well plate (12500 cells/well for 384). After seeding, the assay plates were incubated for forty-five (45) minutes at room temperature. After room temperature incubation, the assay plates were incubated at 37° C. 5% CO2 for 24 hours prior to assaying.
All GPCR assays were performed using Fluo-8 Ca^2+ dye. Ca^2+ dye was prepared at 1× dye concentration in GPCR assay buffer. After 24 hours of incubation, cells were washed with GPCR assay buffer, and then Ca^2+-dye (100 μL/well) was added.
The plates were incubated for 90 minutes at 30° C. 5% CO2 prior to FLIPR assay.
Compound plates were prepared to add 50 μL/well during the agonist assay mode. During the FLIPR assay, 50 μL/well from the compound plate was diluted 3-fold into the existing 100 μL/well from the dye loading step. Therefore all compounds were prepared as 3× the final concentration desired in the assay.
After completion of the first single addition assay run, assay plate was removed from the FLIPR Tetra and placed at 25° C. for seven (7) minutes before antagonist assay.
Using the EC80 values determined during the agonist assay, all pre-incubated sample compound and reference antagonist (if applicable) wells were stimulated at the EC80 of the reference agonist. As reference ligands for the first three assays their obvious natural ligands motilin, prostaglandin F2α, and serotonin (5-HT, 5-Hydroxytryptamine) were used; and for the P2Y1 assay 2MeSATP (2-methyl-thio-adeno-sine 5′-triphosphate, i.e. (2R,3S,4R)-5-(6-amino-2-methylsulfanyl-purin-9-yl)-3,4-dihydroxy-tetrahydrofuran-2-yl]methyl (hydroxy-phosphonooxy-phosphoryl)hydrogen phosphate) was applied.
After the addition of the reference agonist fluorescence was monitored for 180 sec using FLIPR Tetra.
Data Analysis and Results:
From the FLIPR data, with negative control correction enabled, the maximum statistic for each well was exported and percentage activation relative to Emax control was calculated.

[2] = Metabolic stability assay, human microsomes; type: in vitro ADME; settings: human, microsomes; for Metabolic Stability 60 min hum [% remain.]: 1 h; for half-life at 10 µM: both sexes
Method: (§1) 4. Plasma and Metabolic Stability Assays
(§2) The assays were conducted according to literature precedents (F. P. Guengerich, Analysis and Characterization of Enzymes; in: Principles and Methods of Toxicology; A. W. Hayes (Ed.) Raven Press: New York, 1989, 777-813; R. Singh et al., In vitro metabolism of a potent HIV-protease inhibitor (141W94) using rat, monkey and human liver S9, Rapid Commun. Mass Spectrom. 1996, 10, 1019-1026).
(§3) Metabolic Stability Assay
(§4) Microsomes from a human 50 donor mixed gender pool and 1:1 mixtures of microsomes from CD-1 mouse single-gender pools are purchased from Celsis (Belgium). The enzymatic reaction is performed in a buffer containing an NADPH regeneration system and microsomes with the following end concentrations: 100 mM potassium phosphate buffer (all from Sigma), 1 mg/mL glucose-6-phosphate, 1 mg/mL β-nicotinamide adenine dinucleotide phosphate (NADP), 0.65 mg/mL magnesium chloride, 0.8 units/mL of glucose-6-phosphate dehydrogenase (prediluted with 5 mM citrate buffer), 10 μM compound and 1 mg/ml microsomal protein. Compounds are incubated at 37° C. in duplicates and samples are taken after 0, 20 and 60 minutes. After acetonitrile precipitation (2 volumes) and HPLC/MS/MS analysis metabolic turnover is expressed in % of the initial 0 minutes value and half life T½ (min) is calculated. Verapamil for human and propranolol for mouse are used as reference and are assayed with every experimental set.

in vitro [3] = type: in vitro ADME, human; settings: human, plasma; for Plasma Stability 240 min hum [% remain.]: 4 h
[4] = Metabolic stability assay, CD-1 mouse microsomes; type: in vitro ADME; settings: microsomes; for Metabolic Stability 60 min mouse [% remain.]: 1 h; for half-life at 10 µM: both sexes
Method: as §1, §2, §3, §4

in vitro [5] = type: in vitro ADME, mouse; settings: plasma; for Plasma Stability 240 min mouse [% remain.]: 4 h
Method: Example compounds were dissolved in DMSO/H2O 90:10 to a final concentration of 10 mM for plasma stability determination and metabolic stability determination.
Human plasma (3-5 donors, Blutspendedienst SRK, Basel) and CD-1 mouse plasma (mixed gender pool >50 animals, Innovative Research, CA, USA) are both sodium citrate stabilized. The assay is performed in triplicates at 10 μM compound concentration and 37° C. Samples are taken at 0, 15, 60, and 240 minutes and stopped by precipitation with 2 volumes of acetonitrile. The supernatant is collected, evaporated and reconstituted in a 5% acetonitrile solution to be analyzed by HPLC/MS/MS. The resulting peak area counts are expressed in percent of the 0 value and used to determine the endpoint stability in % and the half life in minutes. In order to monitor assay integrity the degradation of propantheline is assayed with every experimental set.
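Wherever Plasma Stability 240 min mouse [% remain.] is given: sodium citrate stabilized mouse plasma, parent compound quantified by HPLC/MS/MS relative to its peak area at time zero, run in triplicate.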
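Wherever Plasma Stability T½ [min] mouse is given: sodium citrate stabilized mouse plasma, parent compound quantified by HPLC/MS/MS relative to its peak area at time zero, run in triplicate.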

T1 sequence (P43088 whole entry): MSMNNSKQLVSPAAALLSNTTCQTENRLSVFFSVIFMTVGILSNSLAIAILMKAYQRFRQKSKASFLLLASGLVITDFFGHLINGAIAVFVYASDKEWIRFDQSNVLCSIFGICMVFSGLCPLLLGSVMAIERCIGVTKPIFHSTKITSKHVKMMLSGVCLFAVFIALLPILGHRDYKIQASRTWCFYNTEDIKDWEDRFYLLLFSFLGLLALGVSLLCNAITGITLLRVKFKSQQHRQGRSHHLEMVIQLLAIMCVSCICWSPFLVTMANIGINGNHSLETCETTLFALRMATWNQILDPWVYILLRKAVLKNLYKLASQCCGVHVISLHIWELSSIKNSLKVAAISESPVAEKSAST

Row | inhibition at 10 µM [1] [%] | Metabolic Stability T½ [min] hum ([2]; both, 10 µM) [min] | Metabolic Stability 60 min hum [% remain.] ([2]; both, 10 µM) | Plasma Stability T½ [min] hum (in vitro [3]; 10 µM) [min] | Plasma Stability 240 min hum [% remain.] (in vitro [3]; 10 µM) | Metabolic Stability T½ [min] mouse ([4]; both, CD-1, mouse, 10 µM) [min] | Metabolic Stability 60 min mouse [% remain.] ([4]; both, CD-1, mouse, 10 µM) | Plasma Stability T½ [min] mouse (in vitro [5]; both, CD-1, mouse, 10 µM) [min] | Plasma Stability 240 min mouse [% remain.] (in vitro [5]; both, CD-1, mouse, 10 µM) | half-life at 10 µM [2] [h] | SMILES | other results
1 | 75 |  |  |  |  |  |  |  |  |  | CN1CCC[C@H](NC(=O)Cc2ccc3ccccc3c2)C(=O)N2C[C@@H](NC(=O)Nc3cccc(F)c3)C[C@H]2COc2cccc(c2)C1=O [Ex. 537, N-[(4S,6S,10S)-6-{[(3-fluoroanilino)carbonyl]amino}-14-methyl-9,15-dioxo-2-oxa-8,14-diazatricyclo[14.3.1.0^4,8]icosa-1(20),16,18-trien-10-yl]-2-(2-naphthyl)acetamide] | 
2 | 32 |  |  |  |  |  |  |  |  |  | CCCCCCCCCC(=O)N[C@H]1CCCN(C)C(=O)c2cccc(c2)OC[C@@H]2C[C@H](NC(=O)Cc3cccc(Oc4ccccc4)c3)CN2C1=O [Ex. 515, N-[(4S,6S,10S)-14-methyl-9,15-dioxo-6-{[2-(3-phenoxyphenyl)acetyl]amino}-2-oxa-8,14-diazatricyclo[14.3.1.0^4,8]icosa-1(20),16,18-trien-10-yl]decanamide] | IC50 [1]: 5.1 µM
3 | 37 |  |  |  |  |  |  |  |  |  | CN1CCC[C@H](NC(=O)Cc2ccc(-c3ccccc3)cc2)C(=O)N2C[C@@H](NC(=O)C(c3ccccc3)c3ccccc3)C[C@H]2COc2cccc(c2)C1=O [Ex. 546, N-[(4S,6S,10S)-10-[(2-[1,1′-biphenyl]-4-ylacetyl)amino]-14-methyl-9,15-dioxo-2-oxa-8,14-diazatricyclo[14.3.1.0^4,8]icosa-1(20),16,18-trien-6-yl]-2,2-diphenylacetamide] | 
4 |  | > 60 | 100 | > 240 | 91 | > 60 | 95 | > 240 | 83 |  | CN1CCC[C@H](N2CCN(S(C)(=O)=O)CC2)C(=O)N2C[C@@H](O)C[C@H]2COc2cccc(c2)C1=O [Ex. 583, (4S,6S,10S)-6-hydroxy-14-methyl-10-[4-(methylsulfonyl)piperazino]-2-oxa-8,14-diazatricyclo[14.3.1.0^4,8]icosa-1(20),16,18-triene-9,15-dione] | 
5 |  |  |  |  |  |  |  |  |  |  | CN1CC(=O)N2C[C@@H](NC(=O)CCC(=O)O)C[C@H]2COc2ccc(F)cc2C(=O)N(C)[C@@H](C(=O)NCc2ccc3ccccc3c2)CCC1=O [Ex. 95] | Metabolic Stability T½ [min] hum [2]: > 60 min; Metabolic Stability 60 min hum [% remain.] [2]: 76 % remain.; Plasma Stability T½ [min] hum (in vitro [3]): > 240 min; Plasma Stability 240 min hum [% remain.] (in vitro [3]): 100 % remain.; Metabolic Stability T½ [min] mouse ([4]; mouse): > 60 min; Metabolic Stability 60 min mouse [% remain.] ([4]; mouse): 94 % remain.; Plasma Stability T½ [min] mouse (in vitro [5]; mouse): > 240 min; Plasma Stability 240 min mouse [% remain.] (in vitro [5]; mouse): 93 % remain.
6 |  | > 60 | 61 | > 240 | 100 | > 60 | 90 | > 240 | 95 |  | CN(C)CC(=O)N[C@@H]1C[C@H]2COc3cccc(c3)C(=O)N(C)C[C@H](NC(=O)Cc3ccc4ccccc4c3)C(=O)N(C)CC(=O)N2C1 [Ex. 230, 2-(dimethylamino)-N-[(4S,6R,13S)-11,15-dimethyl-13-{[2-(2-naphthyl)acetyl]amino}-9,12,16-trioxo-2-oxa-8,11,15-triazatricyclo[15.3.1.0^4,8]henicosa-1(21),17,19-trien-6-yl]acetamide] | 
7 |  |  | 46 | > 240 | 100 | > 60 | 55 | > 240 | 86 | 0.867 | CN1CCC[C@H](N)C(=O)N2C[C@@H](OCc3ccc(-c4cccnc4)cc3)C[C@H]2COc2cccc(c2)C1=O [Ex. 578, (4S,6S,10S)-10-amino-14-methyl-6-{[4-(3-pyridinyl)benzyl]oxy}-2-oxa-8,14-diazatricyclo[14.3.1.0^4,8]icosa-1(20),16,18-triene-9,15-dione] | 
8 |  | > 60 | 62 | > 240 | 89 | > 60 | 99 | > 240 | 78 |  | CN(C)CCNC(=O)[C@H]1CCC(=O)N(C)CC(=O)N2CCN(C(=O)Cc3ccc4ccccc4c3)C[C@@H]2COc2ccc(F)cc2C(=O)N1C [Ex. 138, (12R,20aR)-N-[2-(dimethylamino)ethyl]-16-fluoro-8,13-dimethyl-2-[2-(2-naphthyl)acetyl]-6,9,14-trioxo-1,2,3,4,7,8,9,10,11,12,13,14,20,20a-tetradecahydro-6H-pyrazino[2,1-c][1,4,7,12]benzoxatriazacyclopentadecine-12-carboxamide] | 
9 |  |  | 1 | > 240 | 100 |  | 15 | > 240 | 100 | 0.4 | CNC(=O)[C@H]1CCC(=O)N(C)CC(=O)N2C[C@@H](NC(=O)Cc3ccc4ccccc4c3)C[C@H]2COc2ccc(F)cc2C(=O)N1C [Ex. 93, (2S,11R,19aS)-15-fluoro-N,7,12-trimethyl-2-{[2-(2-naphthyl)acetyl]amino}-5,8,13-trioxo-2,3,6,7,8,9,10,11,12, 13,19,19a-dodecahydro-1H,5H-pyrrolo[2,1-c][1,4,7,12] benzoxatriazacyclopentadecine-11-carboxamide] | half-life at 10 µM ([4]; CD-1, mouse): 0.483 h
10 |  |  | 4 | > 240 | 65 |  | 39 | > 240 | 75 | 0.383 | CCCCCCCCCC(=O)N[C@H]1C[C@H]2COc3ccc(F)cc3C(=O)N(C)[C@@H](C(=O)NCc3ccc4ccccc4c3)CCC(=O)N(C)CC(=O)N2C1 [Ex. 102, (2S,11R,19aS)-2-(decanoylamino)-15-fluoro-7,12-dimethyl-N-(2-naphthylmethyl)-5,8,13-trioxo-2,3,6,7,8,9,10,11,12,13,19,19a-dodecahydro-1H,5H-pyrrolo[2,1-c][1,4,7,12] benzoxatriazacyclopentadecine-11-carboxamide] | half-life at 10 µM ([4]; CD-1, mouse): 0.7 h
